Key:
Settings in all cases: incubation time: 72 h
MDA-MB-231 [1] = test: drug sensitivity score (DSS), CellTox Green (DSS (AUC-based score)); higher = stronger drug effect (viability inhibition or cytotoxicity); extreme values may be limits of the assay
Procedure, shortened: (§1)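 Each compound occupied 5 concentrations in 10-fold steps over its own 10,000-fold range in 384-well plates, into which breast cancer cell lines were seeded as 20 µl suspension. Following 72 h of incubation, CellTox Green fluorescence (485/520 nm) was measured, and CellTiter-Glo luminescence was measured after 10 min at room temperature. Plates were individually normalised to 0.1 % DMSO and a positive kill control. From the area under the fitted dose-response curve, a drug sensitivity score was calculated.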

HCC1143 [2] = test: as above
Procedure, shortened: as §1

MDA-MB-436 [3] = test: as above
Procedure, shortened: as §1

CAL-51 [4] = test: as above
Procedure, shortened: as §1

HCC1599 [5] = test: as above
Procedure, shortened: as §1

BT-474 [6] = test: as above
Procedure, shortened: as §1

MFM-223 [7] = test: as above
Procedure, shortened: as §1

MDA-MB-453 [8] = test: as above
Procedure, shortened: as §1

HDQ-P1 [9] = test: as above
Procedure, shortened: as §1

CAL-148 = test: normalised response (% of control), CellTiter-Glo; higher = more viable cells (100 = DMSO, 0 = benzethonium chloride kill control)
Procedure, shortened: (§2)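 Breast cancer cell lines in 20 µl suspension were added to 384-well plates containing compound at 5 concentrations, spaced in 10-fold steps across a 10,000-fold range chosen for each compound, and incubated for 72 h. CellTox Green fluorescence was read at 485/520 nm, followed by CellTiter-Glo luminescence after 10 min at room temperature. Signals on each plate were normalised so that 0.1 % DMSO equals 100 and a positive kill control equals 0. Every value in the table is the normalised signal at one concentration of the series.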

CAL-120 = test: as above
Procedure, shortened: as §2

Hs578T = test: as above
Procedure, shortened: as §2

SK-BR-3 = test: as above
Procedure, shortened: as §2

HCC1937 = test: as above
Procedure, shortened: as §2

MDA-MB-231 [10] = test: as above
Procedure, shortened: as §2

HCC1143 [11] = test: as above
Procedure, shortened: as §2

MDA-MB-436 [12] = test: as above
Procedure, shortened: as §2

CAL-85-1 = test: as above
Procedure, shortened: as §2

BT-549 = test: as above
Procedure, shortened: as §2

CAL-51 [13] = test: as above
Procedure, shortened: as §2

HCC1599 [14] = test: as above
Procedure, shortened: as §2

DU-4475 = test: as above
Procedure, shortened: as §2

BT-474 [15] = test: as above
Procedure, shortened: as §2

MFM-223 [16] = test: as above
Procedure, shortened: as §2

MDA-MB-468 = test: as above
Procedure, shortened: as §2

MDA-MB-453 [17] = test: as above
Procedure, shortened: as §2

HDQ-P1 [18] = test: as above
Procedure, shortened: as §2

MCF-10A = test: as above
Procedure, shortened: as §2

| Structure (SMILES) | drug sensitivity score (MDA-MB-231 [1]) | drug sensitivity score (HCC1143 [2]) | drug sensitivity score (MDA-MB-436 [3]) | drug sensitivity score (CAL-51 [4]) | drug sensitivity score (HCC1599 [5]) | drug sensitivity score (BT-474 [6]) | drug sensitivity score (MFM-223 [7]) | drug sensitivity score (MDA-MB-453 [8]) | drug sensitivity score (HDQ-P1 [9]) | other results |
| --- | --- | --- | --- | --- | --- | --- | --- | --- | --- | --- |
| Cc1ccc(C(=O)N(CCCN)[C@@H](c2oc3cc(Cl)ccc3c(=O)c2Cc2ccccc2)C(C)C)cc1 | 0 | 0 | 0 | 0 | 0 | 0 | 0 | 0 |  |  |
| O=C(O)c1ccc(-c2c[nH]c3ncc(-c4ccccc4)cc23)cc1C1CCCC1 | 0 | 0 | 0 | 0 | 0 | 0 | 1.51 | 0 | 0 |  |
| NC(=O)Nc1cc(-c2cccc(F)c2)sc1C(=O)N[C@H]1CCCNC1 [AZD7762] | 0.946 | 0 | 0 | 3.37 | 0 | 0 | 0 | 0 | 0 |  |
| CO[C@H]1/C=C\C=C(/C)C(=O)NC2=CC(=O)C(NCCN(C)C)=C(C[C@@H](C)C[C@H](OC)[C@H](O)[C@@H](C)/C=C(\C)[C@@H]1OC(N)=O)C2=O [Alvespimycin] | 7.29 | 9.99 | 0 | 6.02 | 0 | 4.58 | 0 | 0.783 | 4.4 |  |
| CCC1(c2ccc(N)cc2)CCC(=O)NC1=O (stereo unspecified) [Aminoglutethimide] | 0 | 0 | 0 | 0 | 0 | 0 | 0 | 0 | 0 |  |
| Cn1c(CCCC(=O)O)nc2cc(N(CCCl)CCCl)ccc21 [Bendamustine] | 4.63 | 0 | 0 | 0 | 0 | 0 | 0 | 0 | 0 |  |
| C=C(c1ccc(C(=O)O)cc1)c1cc2c(cc1C)C(C)(C)CCC2(C)C [Bexarotene] | 0 | 0 | 0 | 0 | 0 | 0 | 0 | 0 | 0 |  |
| COc1cc2nccc(Oc3ccc(NC(=O)C4(C(=O)Nc5ccc(F)cc5)CC4)cc3)c2cc1OC [Cabozantinib] | 0 | 0 | 0 | 0 | 0 | 0 | 0 | 0 | 0 |  |
| N.N.[Cl][Pt][Cl] [Cisplatin] | 0 | 0 | 0 | 0 | 0 | 0 | 0 | 0 | 0 |  |
| C[C@@H](Oc1cc(-c2cnn(C3CCNCC3)c2)cnc1N)c1c(Cl)ccc(F)c1Cl [Crizotinib] | 0 | 0 |  | 0 | 0 | 0 | 0 | 0 | 0.784 |  |
| CN(C)/N=N/c1[nH]cnc1C(N)=O [Dacarbazine] | 0 | 0 | 0 | 0 | 0 | 0 | 0 | 0 | 0 |  |
| COc1cc2ncnc(Nc3ccc(F)c(Cl)c3)c2cc1NC(=O)/C=C/CN1CCCCC1 [Dacomitinib] | 0 | 0 | 2.58 | 0 | 0 | 6.2 | 0 | 0 | 0 |  |
| Cc1ccc(-n2nc(C(C)(C)C)cc2NC(=O)Nc2ccc(OCCN3CCOCC3)c3ccccc23)cc1 [Doramapimod] | 0 | 0 | 2.62 | 0 | 0 | 0 | 0 | 0 | 0 |  |
| C#Cc1cccc(Nc2ncnc3cc(OCCOC)c(OCCOC)cc23)c1 [Erlotinib] |  | 0 | 0 | 2.1 | 0 | 0.507 | 0 | 0 | 0 |  |
| COc1cc([C@@H]2c3cc4c(cc3[C@@H](O[C@@H]3O[C@@H]5CO[C@@H](C)O[C@H]5[C@H](O)[C@H]3O)[C@H]3COC(=O)[C@H]23)OCO4)cc(OC)c1O [Etoposide] | 0 | 0 | 0 | 9.25 | 0 | 0 | 0 | 0 | 0 |  |
| C[C@]12CC[C@@H]3c4ccc(O)cc4C[C@@H](CCCCCCCCC[S+]([O-])CCCC(F)(F)C(F)(F)F)[C@H]3[C@@H]1CC[C@@H]2O (stereo partly specified) [Fulvestrant] | 0 | 0 | 0 | 0 | 0 | 0 | 0 | 0 | 0 |  |
| O=P1(NCCCl)OCCCN1CCCl (stereo unspecified) [Ifosfamide] | 1.11 | 0 |  | 0 | 0 | 0 | 0 | 0 | 0 |  |
| CC(C)Cn1cnc2c(N)nc3ccccc3c21 [Imiquimod] | 0 | 0 | 0 | 0 | 0 | 0 | 0 | 0 | 1.63 |  |
| N#CCNC(=O)c1ccc(-c2ccnc(Nc3ccc(N4CCOCC4)cc3)n2)cc1 [Momelotinib] | 7.53 | 0 | 0 | 0 | 0 | 0 | 0 | 0 | 0 |  |
| CC1(C)NC(=O)N(c2ccc([N+](=O)[O-])c(C(F)(F)F)c2)C1=O [Nilutamide] | 0 |  | 0 | 0 | 0 | 0 | 0 | 0 | 0 |  |
| CCCCCCCCCCCCCCCCCCOP(=O)([O-])OC1CC[N+](C)(C)CC1 [Perifosine] | 0 | 0 | 0 | 0 | 0 | 0 | 0 | 0 | 0 |  |
| Cn1c(Nc2ccc(C(F)(F)F)cc2)nc2cc(Oc3ccnc(-c4ncc(C(F)(F)F)[nH]4)c3)ccc21 [RAF265] | 0 | 0 | 0 | 0 | 0 | 0 | 2.58 | 0 | 0 |  |
| CS(=O)(=O)c1ccc(C2=C(c3ccccc3)C(=O)OC2)cc1 [Rofecoxib] | 0 | 0 | 0 | 0 | 0 | 1.58 | 0 | 0 | 0 |  |
| CNCc1ccc(-c2[nH]c3cc(F)cc4c3c2CCNC4=O)cc1 [Rucaparib] | 0 | 0 | 0 | 0 | 0 | 0 | 0 | 0 | 0 |  |
| N[C@@H](CSC(c1ccccc1)(c1ccccc1)c1ccccc1)C(=O)O [S-trityl-L-cysteine] | 0 | 0 | 0 | 0 | 0 | 0 | 0 | 0 | 0 |  |
| CN(N=O)C(=O)N[C@@H](C=O)[C@@H](O)[C@H](O)[C@H](O)CO [Streptozocin] | 0 | 0 | 0 | 0 | 0 | 0 | 0 | 0 | 0 |  |
| O=C1CCC(N2C(=O)c3ccccc3C2=O)C(=O)N1 (stereo unspecified) [Thalidomide] | 0 | 0 | 4.46 | 0 | 0 | 0 | 0 | 0 |  |  |
| Oc1nc(-c2ccc(C(F)(F)F)cc2)nc2c1CSCC2 [XAV-939] (1000 nM) |  |  |  |  |  |  |  |  |  | normalised response (CAL-148): 89.8%; normalised response (CAL-120): 92%; normalised response (Hs578T): 92.3%; normalised response (SK-BR-3): 84.4%; normalised response (HCC1937): 91.1%; normalised response (MDA-MB-231 [10]): 76.8%; normalised response (HCC1143 [11]): 88.8%; normalised response (MDA-MB-436 [12]): 96.7%; normalised response (CAL-85-1): 105%; normalised response (BT-549): 91.8%; normalised response (CAL-51 [13]): 89.3%; normalised response (HCC1599 [14]): 104%; normalised response (DU-4475): 92.8%; normalised response (BT-474 [15]): 79.8%; normalised response (MFM-223 [16]): 96.1%; normalised response (MDA-MB-468): 82%; normalised response (MDA-MB-453 [17]): 91.4%; normalised response (HDQ-P1 [18]): 101%; normalised response (MCF-10A): 88.8% |
